According to patent publication US20240381872A1, “SUBSTITUTED 2,3-DIHYDRO[1,3]THIAZOLO[4,5-B]PYRIDINES, SALTS THEREOF AND THEIR USE AS HERBICIDALLY ACTIVE SUBSTANCES” (BAYER AKTIENGESELLSCHAFT, priority 2021, published 2024):

What was measured:
Type in all cases: in vivo
[1] = system: Matricaria inodora (MATIN); test: Herbicidal pre-emergence action, section A (Table A6); settings: visual grading after ca. 3 weeks vs untreated controls
In short: (§1)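 Seeds sown in sandy loam and covered with soil; compounds formulated as WP or EC were applied to the soil surface as aqueous suspension or emulsion with 0.5% additive at 600 l water/ha. Pots kept in greenhouse under optimum conditions; damage scored visually after ca. 3 weeks versus untreated controls (0–100%).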

[2] = system: Digitaria sanguinalis (DIGSA); test: Herbicidal pre-emergence action, section A (Table A12); settings: application rate 320 g/ha
In short: as §1

[3] = system: Abutilon theophrasti (ABUTH); test: Herbicidal post-emergence action, section B (Table B1); settings: rated visually after about 3 weeks
In short: (§2)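 In this greenhouse assay, compounds in WP or EC form were applied post-emergence with 0.5% additive at a water rate of 600 liters per hectare. Treatment took place at the one-leaf stage, and injury was rated visually about 3 weeks later against untreated plants.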

Poa annua (POAAN) = test: Herbicidal post-emergence action, section B (Table B7); settings: visual rating about 3 weeks after treatment vs untreated controls
In short: as §2

Setaria viridis (SETVI) = test: Herbicidal post-emergence action, section B (Table B8); settings: application rate 1280 g/ha, visual rating about 3 weeks after treatment vs untreated controls
In short: as §2

[4] = system: Digitaria sanguinalis (DIGSA); test: Herbicidal post-emergence action, section B (Table B12); settings: application rate 1280 g/ha; visual rating about 3 weeks after treatment vs untreated controls
In short: as §2

[5] = system: Echinochloa crus-galli (ECHCG); test: Herbicidal pre-emergence action, section C (Table C3); settings: visual grading after ca. 3 weeks vs untreated controls; for pest or weed control at 80 g/ha: Echinochloa crus-galli, pre-emergence, 504 h, read-out: pre-emergence activity against ECHCG in %
In short: (§3)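 Visual damage rating at ca. 3 weeks relative to untreated controls, expressed as % effect (100% = plants died, 0% = like controls). Pre-emergence treatment: WP or EC formulations applied to the soil surface over sown seeds in sandy loam, 600 l water/ha, 0.5% additive.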

[6] = system: Matricaria inodora (MATIN); test: Herbicidal pre-emergence action, section C (Table C6); settings: visual grading after ca. 3 weeks
Description: (§4) Seeds of mono- and dicotyledonous weed plants and crop plants were sown, in plastic or organic planting pots, in sandy loam and covered with soil. The compounds according to the invention, formulated in the form of wettable powders (WP) or as emulsifiable concentrates (EC), were applied to the surface of the covering soil as aqueous suspension or emulsion, with the addition of 0.5% of an additive, at an application rate of 600 l of water/ha (converted). Following treatment, the pots were placed in a greenhouse and kept under optimum growth conditions for the test plants. The visual grading of the damage to the test plants was carried out after ca. 3 weeks in comparison to untreated controls (herbicidal effect in percent (%): 100% effect=plants have died off, 0% effect=as control plants).

[7] = system: Polygonum convolvulus (POLCO); test: Herbicidal pre-emergence action, section C (Table C7); settings: visual grading after ca. 3 weeks; for pest or weed control at 320 g/ha: Fallopia convolvulus, pre-emergence, 504 h, read-out: pre-emergence activity against POLCO in %
In short: as §3

Veronica persica (VERPE) = test: Herbicidal pre-emergence action, section C (Table C10); settings: visual grading after ca. 3 weeks; for pest or weed control at 320 g/ha: Veronica persica, pre-emergence, 504 h, read-out: pre-emergence activity against VERPE in %
Description: as §4

[8] = system: Amaranthus retroflexus (AMARE); test: Herbicidal pre-emergence action, section C (Table C11); settings: visual grading after ca. 3 weeks
In short: as §3

[9] = system: Digitaria sanguinalis (DIGSA); test: Herbicidal pre-emergence action, section C (Table C12); settings: visual grading after ca. 3 weeks; for pest or weed control at 80 g/ha: Digitaria sanguinalis, pre-emergence, 504 h, read-out: pre-emergence activity against DIGSA in %
In short: as §3

Zea mays (ZEAMX) = test: Pre-emergence effects on crop plants, section D (Table D1); settings: visual grading after ca. 3 weeks
In short: (§5)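 Seeds sown in sandy loam and covered with soil; WP or EC formulations applied to the covering soil surface as aqueous suspension/emulsion with 0.5% additive at 600 l water/ha, at 320 g/ha or below. Greenhouse growth; visual damage scored after ca. 3 weeks versus untreated controls (0% = as control, 100% = dead).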

Glycine max (GLXMA) = test: Pre-emergence effects on crop plants, section D (Table D4); settings: application rate 320 g/ha; visual grading after ca. 3 weeks
In short: as §5

## COC(=O)CCC(=O)N1CSc2cc(C)c(-c3ccccc3F)nc21 [Example I-010]
[1]; application rate 320 g/ha
  pre-emergence activity against MATIN in %: 90%
[2]
  pre-emergence activity against DIGSA in %: 100%
[3]; application rate 320 g/ha
  post-emergence activity against ABUTH in %: 90%
Poa annua (POAAN); application rate 1280 g/ha
  post-emergence activity against POAAN in %: 90%
Setaria viridis (SETVI)
  post-emergence activity against SETVI in %: 90%
[4]
  post-emergence activity against DIGSA in %: 90%
[5]; application rate 80 g/ha
  pre-emergence activity against ECHCG in %: 100%
[6]; application rate 320 g/ha
  pre-emergence activity against MATIN in %: 90%
[7]; application rate 80 g/ha
  pre-emergence activity against POLCO in %: 80%
Veronica persica (VERPE); application rate 320 g/ha
  pre-emergence activity against VERPE in %: 90%
[8]; application rate 320 g/ha
  pre-emergence activity against AMARE in %: 90%
[9]; application rate 80 g/ha
  pre-emergence activity against DIGSA in %: 100%

## CC1(C(=O)N2CSc3cc(Br)c(-c4ccccc4)nc32)CC(Cl)=NO1 (stereo not drawn) [Example I-139]
[1]; application rate 1280 g/ha
  pre-emergence activity against MATIN in %: 90%
[2]
  pre-emergence activity against DIGSA in %: 100%
[3]; application rate 1280 g/ha
  post-emergence activity against ABUTH in %: 90%
Poa annua (POAAN); application rate 320 g/ha
  post-emergence activity against POAAN in %: 90%
Setaria viridis (SETVI)
  post-emergence activity against SETVI in %: 90%
[4]
  post-emergence activity against DIGSA in %: 90%
[5]; application rate 320 g/ha
  pre-emergence activity against ECHCG in %: 100%
[6]; application rate 320 g/ha
  pre-emergence activity against MATIN in %: 80%
[7]; application rate 320 g/ha
  pre-emergence activity against POLCO in %: 80%
Veronica persica (VERPE); application rate 320 g/ha
  pre-emergence activity against VERPE in %: 80%
[8]; application rate 80 g/ha
  pre-emergence activity against AMARE in %: 90%
[9]; application rate 320 g/ha
  pre-emergence activity against DIGSA in %: 100%
Zea mays (ZEAMX); application rate 320 g/ha
  pre-emergence activity against ZEAMX in % (crop plant damage): 20%

## Cc1cc2c(nc1-c1ccccc1F)NCS2 [Example I-007, 5-(2-fluorophenyl)-6-methyl-2,3-dihydro[1,3]thiazolo[4,5-b]pyridine]
[1]; Tripleurospermum inodorum, pre-emergence, 504 h, application rate 1280 g/ha, read-out: pre-emergence activity against MATIN in %
  pest or weed control at 1280 g/ha: 90%
Poa annua (POAAN); Poa annua, post-emergence, 504 h, application rate 1280 g/ha, read-out: post-emergence activity against POAAN in %
  pest or weed control at 1280 g/ha: 90%
Setaria viridis (SETVI); Setaria viridis, post-emergence, 504 h, read-out: post-emergence activity against SETVI in %
  pest or weed control at 1280 g/ha: 90%
[5]; application rate 80 g/ha
  pest or weed control at 80 g/ha: 100%
[6]; Tripleurospermum inodorum, pre-emergence, 504 h, application rate 80 g/ha, read-out: pre-emergence activity against MATIN in %
  pest or weed control at 80 g/ha: 80%
[7]; application rate 320 g/ha
  pest or weed control at 320 g/ha: 80%
Veronica persica (VERPE); application rate 320 g/ha
  pest or weed control at 320 g/ha: 80%
[9]; application rate 80 g/ha
  pest or weed control at 80 g/ha: 100%

## Cc1ccccc1-c1nc2c(cc1C)SCN2C(=O)C1(C)CC(Cl)=NO1 (stereo not drawn) [Example I-137]
[1]; application rate 320 g/ha
  pre-emergence activity against MATIN in %: 90%
[2]
  pre-emergence activity against DIGSA in %: 100%
[3]; application rate 1280 g/ha
  post-emergence activity against ABUTH in %: 90%
Poa annua (POAAN); application rate 320 g/ha
  post-emergence activity against POAAN in %: 90%
Setaria viridis (SETVI)
  post-emergence activity against SETVI in %: 90%
[4]
  post-emergence activity against DIGSA in %: 90%
[5]; application rate 80 g/ha
  pre-emergence activity against ECHCG in %: 100%
[6]; application rate 320 g/ha
  pre-emergence activity against MATIN in %: 90%
[7]; application rate 320 g/ha
  pre-emergence activity against POLCO in %: 80%
Veronica persica (VERPE); application rate 80 g/ha
  pre-emergence activity against VERPE in %: 80%
[8]; application rate 80 g/ha
  pre-emergence activity against AMARE in %: 90%
[9]; application rate 320 g/ha
  pre-emergence activity against DIGSA in %: 100%
Zea mays (ZEAMX); application rate 80 g/ha
  pre-emergence activity against ZEAMX in % (crop plant damage): 20%

## Cc1cc2c(nc1-c1ccccc1Cl)NCS2 [Example I-049, 5-(2-chlorophenyl)-6-methyl-2,3-dihydro[1,3]thiazolo[4,5-b]pyridine]
[5]; application rate 80 g/ha
  pest or weed control at 80 g/ha: 100%
[6]; Tripleurospermum inodorum, pre-emergence, 504 h, application rate 320 g/ha, read-out: pre-emergence activity against MATIN in %
  pest or weed control at 320 g/ha: 80%
[7]; application rate 320 g/ha
  pest or weed control at 320 g/ha: 80%
Veronica persica (VERPE); application rate 320 g/ha
  pest or weed control at 320 g/ha: 80%
[8]; Amaranthus retroflexus, pre-emergence, 504 h, application rate 80 g/ha, read-out: pre-emergence activity against AMARE in %
  pest or weed control at 80 g/ha: 80%
[9]; application rate 80 g/ha
  pest or weed control at 80 g/ha: 90%
Zea mays (ZEAMX); application rate 80 g/ha
  pre-emergence activity against ZEAMX in % (crop plant damage): 10%
Glycine max (GLXMA)
  pre-emergence activity against GLXMA in % (crop plant damage): 0%
